# Reference: US20240317734A1, “BI-FUNCTIONAL COMPOUNDS AND METHODS FOR TARGETED UBIQUITINATION OF ANDROGEN RECEPTOR” (MONTELINO THERAPEUTICS, INC., priority 2021, published 2024)
# System: 22Rv1-Enz^R
# Assay: 22Rv1-Enz^R cell proliferation assay
# Type: cell-based
# Conditions: human prostate cancer cell line 22Rv1-Enz^R; 6-day culture, cell media changed every 24 hours; half maximal growth inhibition constant; read-out: 22Rv1-Enz^R proliferation assay GIC50
# Protocol: The human prostate cancer cell line, 22Rv1 has been reported to express a high level of AR-V7. According to one procedure, 22Rv1 is seeded at 50,000 cells/well on a 24-well plate in quadruplicate and treated with test compounds in concentrations ranging up to 20 μM for four days. Standard culture media is RPMI-1640 supplemented with 10% fetal bovine serum. The test compound initially is dissolved in DMSO at 50 mM. This stock solution is then diluted as needed for the indicated concentrations. At the end of the four-day period, cells are harvested using 1% trypsin and counted using an automated cell counter.
# Cell Culture. Human CaP cell lines, LNCaP, 22Rv1, VCaP, PC3, and DU145 are obtained from the American Type Culture Collection (ATCC) and maintained in the standard culture media: RPMI-1640 supplemented with 10% fetal bovine serum (FBS). LNCaP, 22Rv1, and VCaP are androgen-responsive cell lines, while PC3 and DU145 are not. To establish SAT resistant CaP cell lines, LNCaP, 22Rv1, and VCaP are treated continuously with 10-50 μM abiraterone, apalutamide, darolutamide, or enzalutamide. After 3-6 months, stable cell lines are established and designated as LNCaP-Abi^R, LNCaP-Apa^R, LNCap-Daro^R, LNcaP-Enz^R, VcaP-Abi^R, VCaP-Apa^R, VCaP-Daro^R, VCaP-Enz^R, 22Rv1-Abi^R, 22Rv1-Apa^R, 22Rv1-Daro^R, and 22Rv1-Enz^R. Unless otherwise specified, the standard culture media for these SAT-resistant cell lines included 10 μM of their respective SAT. For the proteasome inhibitor study, the inhibitors MG132 and Epoxomicin are used. The E3 ligase inhibitors Heclin, Nutlin 3a, Thalidomide, and VH298 are used. Cell lines obtained from ATCC are confirmed by checking their morphology using optical microscopy, establishing baselines for cell proliferation, verifying species of origin using isoenzymology, and characterizing the cell's DNA fingerprint using short tandem repeat (STR) profiling. Mycoplasma contamination is also assessed using a PCR based detection system.
# Selected compounds may be tested in the human prostate cancer cell line, 22Rv1-Enz^R, as described in Geun Tack Lee et al., Molecular Cancer Therapeutics, 20:490-9 (2021). These procedures are similar to that described in Experimental Example 1, above, except that the assay conditions are a 6-day culture with cell media changed every 24 hours.
row,IC50 [µM],SMILES
1,< 100,"O=C(COc1c(-c2csc(N3CCOCC3)n2)ccc(F)c1F)NCCCCNc1ccc2nnn(C3CCC(=O)NC3=O)c(=O)c2c1 (stereo not shown) [Example 1, 2-(2,3-difluoro-6-(2-morpholinothiazol-4-yl)phenoxy)-N-(4-((3-(2,6-dioxopiperidin-3-yl)-4-oxo-3,4-dihydrobenzo[d][1,2,3]triazin-6-yl)amino)butyl)acetamide]"
2,< 10,"O=C(COc1c(-c2csc(N3CCOCC3)n2)ccc(F)c1F)NCCCCCCNc1ccc2nnn(C3CCC(=O)NC3=O)c(=O)c2c1 (stereo not shown) [Example 2, 2-(2,3-difluoro-6-(2-morpholinothiazol-4-yl)phenoxy)-N-(6-((3-(2,6-dioxopiperidin-3-yl)-4-oxo-3,4-dihydrobenzo[d][1,2,3]triazin-6-yl)amino)hexyl)acetamide]"
3,< 100,"O=C1CCC(n2nnc3ccc(NCCOCCOCCOc4c(-c5csc(N6CCOCC6)n5)ccc(F)c4F)cc3c2=O)C(=O)N1 (stereo not shown) [Example 3, 3-(6-((2-(2-(2-(2,3-difluoro-6-(2-morpholinothiazol-4-yl)phenoxy)ethoxy)ethoxy)ethyl)amino)-4-oxobenzo[d][1,2,3]triazin-3(4H)-yl)piperidine-2,6-dione]"
4,< 10,"O=C(COc1c(-c2csc(N3CCOCC3)n2)ccc(F)c1F)NCCCCCCCCCCNc1ccc2nnn(C3CCC(=O)NC3=O)c(=O)c2c1 (stereo not shown) [Example 4, 2-(2,3-difluoro-6-(2-morpholinothiazol-4-yl)phenoxy)-N-(10-((3-(2,6-dioxopiperidin-3-yl)-4-oxo-3,4-dihydrobenzo[d][1,2,3]triazin-6-yl)amino)decyl)acetamide]"
